According to patent US11033640B2, “Enteric CT contrast material based on low-z atoms” (priority 2013, dated 2021):

Tested on: rabbit

[Mg+2].[OH-].[OH-] [Mg(OH)2, magnesium hydroxide]
Toxicity or discomfort (rabbit model, high-concentration suspension diluted to 400 HU): without observing obvious toxicity or discomfort
Differentiation from iodinated intravascular contrast, two-material decomposition (rabbit, dual energy CT): without interfering signal from the intravascular iodinated contrast material
